Among the data in patent publication US20210355104A1, “ADENOSINE RECEPTOR BINDING COMPOUNDS” (Nikang Therapeuticsm Inc., priority 2018, published 2021) are IC50 values, retold here.

Several values for one entry are separate records, joined by “and”; a condition that tells them apart may be missing. Identical values can stand only once.

Adenosine A2A receptor, sequence (P29274 whole entry): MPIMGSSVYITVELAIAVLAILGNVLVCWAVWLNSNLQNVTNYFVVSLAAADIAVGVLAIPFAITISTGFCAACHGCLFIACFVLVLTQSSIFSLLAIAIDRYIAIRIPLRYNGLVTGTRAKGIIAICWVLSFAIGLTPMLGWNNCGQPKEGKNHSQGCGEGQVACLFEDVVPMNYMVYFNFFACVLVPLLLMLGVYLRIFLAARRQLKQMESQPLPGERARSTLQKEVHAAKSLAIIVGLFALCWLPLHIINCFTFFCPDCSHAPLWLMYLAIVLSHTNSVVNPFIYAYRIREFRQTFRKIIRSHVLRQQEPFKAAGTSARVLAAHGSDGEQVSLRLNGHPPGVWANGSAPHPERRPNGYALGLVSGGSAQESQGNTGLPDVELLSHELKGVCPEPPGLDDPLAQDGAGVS

The assay deals with Adenosine A2A receptor (Homo sapiens, UniProt P29274). Briefly: cAMP assay in 293A cells stably expressing the adenosine A2A receptor (CGS21680 stimulation, HTRF). The format is cell-based. To be noted: 293A-A2AR cells, 0.1% BSA, 1 uM CGS; read-out: cAMP (nM) 0.1% BSA, 1 uM CGS. On the set-up: expressed in transfected cells; host or cells: 293A cells (Invitrogen, Cat# R705-07) infected with A2A-expressing lentivirus (custom packaged by Biosettia), puromycin selected. On the procedure:
A 293A cell line (Invitrogen, Cat# R705-07) stably expressing the adenosine A2A receptor was generated in house. Briefly, 293A cells were seeded in 6-well plate and infected with A2A expressing lentivirus (custom packaged by Biosettia) and selected with puromycin (1 ug/ml). Cells survived selection were confirmed for A2A expression by RT-qPCR (RT Reagent: High-Capacity cDNA Reverse Transcription Kit, Applied Biosystems/Thermo Fisher Cat# 4368814, qPCR reagent: SYBR™ Green Master Mix, Applied Biosystems/Thermo Fisher Cat# 4309155). The cells were maintained in DMEM/F12 medium containing 10% FBS, 100 units/ml Penicillin, 100 μg/ml Streptomycin, and 1 μg/ml puromycin at 37° C., 5% CO2. 293A-A2AR cells were harvested on the day of assay and resuspended at 0.6 million cells/ml in DMEM/F12 with 0.1% BSA and 30 U/ml denosine deaminase(Roche, Cat #: 10102121001). Serial dilutions of compounds were prepared in DMEM/F12 with 0.1% BSA to a DMSO concentration of 0.6%. After 4 μl of compound dilutions were added, 4 μl suspended cells were dispensed into low-volume white 384-well plates (Greiner Bio-One). […] The assay plate was then incubated at room temperature for 30 min. 3 μl of d2 conjugated cAMP and 3 μl cryptate conjugated anti-cAMP antibody were then added. D2 conjugated cAMP and cryptate conjugated anti-cAMP antibody (Cisbio, Cat #: 62AM6PEC) were both prepared in cell lysis buffer according to the manufacturer's instruction. After 1 h incubation at room temperature, plates were read in CIARIOstar plate reader (BMG Labtech) using the HTRF detection mode.
(Changes in cAMP serve as a functional read-out for many G protein-coupled receptors.)
On to `Cc1cc(-c2c(OCc3cccc(N4CC(C(=O)O)C4)n3)nc(N)nc2-c2ccc(F)cc2)cc(C(F)F)n1` [Example 293, 1-(6-(((2-amino-5-(2-(difluoromethyl)-6-methylpyridin-4-yl)-6-(4-fluorophenyl)pyrimidin-4-yl)oxy)methyl)pyridin-2-yl)azetidine-3-carboxylic acid], for which the IC50 was 4350 nM.
The same measure for `Cc1cc(-c2c(OCc3cccc(N4CCC[C@@H]4C(=O)O)n3)nc(N)nc2-c2ccc(F)cc2)cc(C(F)F)n1` [Example 294, (6-(((2-amino-5-(2-(difluoromethyl)-6-methylpyridin-4-yl)-6-(4-fluorophenyl)pyrimidin-4-yl)oxy)methyl)pyridin-2-yl)-D-proline]: 19700 nM; for `Cc1cc(-c2c(OCc3cccc(C(C)(C)OCC(=O)O)n3)nc(N)nc2-c2ccc(F)cc2)cc(C(F)F)n1` [Example 296, 2-((2-(6-(((2-amino-5-(2-(difluoromethyl)-6-methylpyridin-4-yl)-6-(4-fluorophenyl)pyrimidin-4-yl)oxy)methyl)pyridin-2-yl)propan-2-yl)oxy)acetic acid]: 3630 nM; for `Cc1cc(-c2c(-c3ccc(F)cc3)nc(N)nc2-c2cn(Cc3cccc(C(C)(C)O)n3)nn2)cc(C(F)F)n1` [Example 298, 2-(6-((4-(2-amino-5-(2-(difluoromethyl)-6-methylpyridin-4-yl)-6-(4-fluorophenyl)pyrimidin-4-yl)-1H-1,2,3-triazol-1-yl)methyl)pyridin-2-yl)propan-2-ol]: above 10000 nM.
The same measure for `Cc1cc(-c2c(OCCc3cccnc3)nc(N)nc2-c2ccc(F)cc2)cc(C(F)F)n1` [Example 299, 5-(2-(difluoromethyl)-6-methylpyridin-4-yl)-4-(4-fluorophenyl)-6-(2-(pyridin-3-yl)ethoxy)pyrimidin-2-amine]: 1110 nM.
The same measure for `CCc1nn(CC(C)(C)C(=O)O)nc1COc1nc(N)nc(-c2ccc(F)cc2)c1-c1cc(C)nc(C(F)F)c1` [Example 300, 3-(4-(((2-amino-5-(2-(difluoromethyl)-6-methylpyridin-4-yl)-6-(4-fluorophenyl)pyrimidin-4-yl)oxy)methyl)-5-ethyl-2H-1,2,3-triazol-2-yl)-2,2-dimethylpropanoic acid]: above 10000 nM.
With `CCc1nnn(CC(C)(C)C(=O)O)c1COc1nc(N)nc(-c2ccc(F)cc2)c1-c1cc(C)nc(C(F)F)c1` [Example 301, 3-(5-(((2-amino-5-(2-(difluoromethyl)-6-methylpyridin-4-yl)-6-(4-fluorophenyl)pyrimidin-4-yl)oxy)methyl)-4-ethyl-1H-1,2,3-triazol-1-yl)-2,2-dimethylpropanoic acid], the IC50 was above 10000 nM.
The same measure for `CCc1c(COc2nc(N)nc(-c3ccc(F)cc3)c2-c2cc(C)nc(C(F)F)c2)nnn1CC(C)(C)C(=O)O` [Example 302, 3-(4-(((2-amino-5-(2-(difluoromethyl)-6-methylpyridin-4-yl)-6-(4-fluorophenyl)pyrimidin-4-yl)oxy)methyl)-5-ethyl-1H-1,2,3-triazol-1-yl)-2,2-dimethylpropanoic acid]: above 10000 nM.
For `Cc1cc(-c2c(OCc3cccc(C(O)CO)n3)nc(N)nc2-c2ccc(F)cc2)cc(C(F)F)n1` (centres unmarked) [Example 303, 1-(6-(((2-amino-5-(2-(difluoromethyl)-6-methylpyridin-4-yl)-6-(4-fluorophenyl)pyrimidin-4-yl)oxy)methyl)pyridin-2-yl)ethane-1,2-diol] the value was 965 nM.
The same measure for `Cc1cc(-c2c(OCCOc3cccc(CO)n3)nc(N)nc2-c2ccc(F)cc2)cc(C(F)F)n1` [Example 304, (6-(2-((2-amino-5-(2-(difluoromethyl)-6-methylpyridin-4-yl)-6-(4-fluorophenyl)pyrimidin-4-yl)oxy)ethoxy)pyridin-2-yl)methanol]: 681 nM; for `Cc1cc(-c2c(OCc3ccnc(N(C)C)n3)nc(N)nc2-c2ccc(F)cc2)cc(C(F)F)n1` [Example 307, 4-(((2-amino-5-(2-(difluoromethyl)-6-methylpyridin-4-yl)-6-(4-fluorophenyl)pyrimidin-4-yl)oxy)methyl)-N,N-dimethylpyrimidin-2-amine]: 211 nM and 246 nM; for `Cc1cc(-c2c(OCc3ccnc(C(C)(C)O)n3)nc(N)nc2-c2ccc(F)cc2)cc(C(F)F)n1` [Example 308]: 164 nM and 197 nM and 159 nM and 113 nM.
For the compound `Cc1cc(-c2c(OCc3cccc(N4CC[C@H](C(=O)O)C4)n3)nc(N)nc2-c2ccc(F)cc2)cc(C(F)F)n1` [Example 309, (S)-1-(6-(((2-amino-5-(2-(difluoromethyl)-6-methylpyridin-4-yl)-6-(4-fluorophenyl)pyrimidin-4-yl)oxy)methyl)pyridin-2-yl)pyrrolidine-3-carboxylic acid], the IC50 was 1370 nM.
The same measure for `Cc1cc(-c2c(OCc3cccc(N4CC[C@@H](C(=O)O)C4)n3)nc(N)nc2-c2ccc(F)cc2)cc(C(F)F)n1` [Example 310, (R)-1-(6-(((2-amino-5-(2-(difluoromethyl)-6-methylpyridin-4-yl)-6-(4-fluorophenyl)pyrimidin-4-yl)oxy)methyl)pyridin-2-yl)pyrrolidine-3-carboxylic acid]: 2490 nM; for `Cc1cc(-c2c(OCc3cccc(N4CCC[C@H]4C(=O)O)n3)nc(N)nc2-c2ccc(F)cc2)cc(C(F)F)n1` [Example 311, (6-(((2-amino-5-(2-(difluoromethyl)-6-methylpyridin-4-yl)-6-(4-fluorophenyl)pyrimidin-4-yl)oxy)methyl)pyridin-2-yl)-L-proline]: above 10000 nM.
For `Cc1cc(-c2c(-c3cn(Cc4cccc(C(C)(C)O)n4)nn3)nc(N)nc2-c2cccc(C#N)c2C)cc(C(F)F)n1` [Example 312, 3-(2-amino-5-(2-(difluoromethyl)-6-methylpyridin-4-yl)-6-(1-((6-(2-hydroxypropan-2-yl)pyridin-2-yl)methyl)-1H-1,2,3-triazol-4-yl)pyrimidin-4-yl)-2-methylbenzonitrile] the value was 16600 nM; for `CCc1nn(C[C@H](O)CO)nc1COc1nc(N)nc(-c2ccc(F)cc2)c1-c1cc(C)nc(C(F)F)c1` [Example 316, (S)-3-(4-(((2-amino-5-(2-(difluoromethyl)-6-methylpyridin-4-yl)-6-(4-fluorophenyl)pyrimidin-4-yl)oxy)methyl)-5-ethyl-2H-1,2,3-triazol-2-yl)propane-1,2-diol], 1080 nM; for `CCc1c(COc2nc(N)nc(-c3ccc(F)cc3)c2-c2cc(C)nc(C(F)F)c2)nnn1C[C@H](O)CO` [Example 317, (S)-3-(4-(((2-amino-5-(2-(difluoromethyl)-6-methylpyridin-4-yl)-6-(4-fluorophenyl)pyrimidin-4-yl)oxy)methyl)-5-ethyl-1H-1,2,3-triazol-1-yl)propane-1,2-diol], 1430 nM.
The same measure for `CCc1nnn(C[C@H](O)CO)c1COc1nc(N)nc(-c2ccc(F)cc2)c1-c1cc(C)nc(C(F)F)c1` [Example 318, (S)-3-(5-(((2-amino-5-(2-(difluoromethyl)-6-methylpyridin-4-yl)-6-(4-fluorophenyl)pyrimidin-4-yl)oxy)methyl)-4-ethyl-1H-1,2,3-triazol-1-yl)propane-1,2-diol]: 1350 nM.
For `Cc1cc(-c2c(OCc3cc4ccccc4n3C)nc(N)nc2-c2ccc(F)cc2)cc(C(F)F)n1` [Example 319, 5-(2-(difluoromethyl)-6-methylpyridin-4-yl)-4-(4-fluorophenyl)-6-((1-methyl-1H-indol-2-yl)methoxy)pyrimidin-2-amine], the IC50 is 209 nM and 256 nM.
For `CCc1nn(CC(O)COC)nc1COc1nc(N)nc(-c2ccc(F)cc2)c1-c1cc(C)nc(C(F)F)c1` (centres unmarked) [Example 321, 1-(4-(((2-amino-5-(2-(difluoromethyl)-6-methylpyridin-4-yl)-6-(4-fluorophenyl)pyrimidin-4-yl)oxy)methyl)-5-ethyl-2H-1,2,3-triazol-2-yl)-3-methoxypropan-2-ol] the value was 2290 nM.
The same measure for `CCc1nnn(CC(O)COC)c1COc1nc(N)nc(-c2ccc(F)cc2)c1-c1cc(C)nc(C(F)F)c1` (centres unmarked) [Example 322, 1-(5-(((2-amino-5-(2-(difluoromethyl)-6-methylpyridin-4-yl)-6-(4-fluorophenyl)pyrimidin-4-yl)oxy)methyl)-4-ethyl-1H-1,2,3-triazol-1-yl)-3-methoxypropan-2-ol]: 2470 nM.
The same measure for `CCc1c(COc2nc(N)nc(-c3ccc(F)cc3)c2-c2cc(C)nc(C(F)F)c2)nnn1CC(O)COC` (centres unmarked) [Example 323, 1-(4-(((2-amino-5-(2-(difluoromethyl)-6-methylpyridin-4-yl)-6-(4-fluorophenyl)pyrimidin-4-yl)oxy)methyl)-5-ethyl-1H-1,2,3-triazol-1-yl)-3-methoxypropan-2-ol]: 1680 nM.
